# Reference: patent US20050154060A1, “Anti-inflamatory inhalation pharmaceutical composition” (Galephar Pharmaceutical Research, Inc., priority 2003, published 2005)
# What was measured:
# [1] = system: interleukine 6 (IL-6); assay: Sputum IL-6 in 12-week placebo controlled study of NAL DPI in COPD patients; type: in vivo, human (COPD patients); conditions: for concentration in IL-6 decreased by: sputum, after 12 weeks of treatment
# Method: (§1) A new clinical trial has been performed with a dry powder inhaler (DPI) formulation of NAL in moderate to severely ill COPD patients. The study was performed with two doses of NAL DPI: 20 mg twice a day and 40 mg twice a day versus placebo.
# (§2) The complete title of the study was “A 12-week, multicentre, randomised, double-blind, placebo controlled, pilot study of the safety and efficacy of Nacystelyn (20 mg b.i.d. and 40 mg b.i.d.) in patients with chronic obstructive pulmonary disease (COPD).”
# (§3) NAL pulmonary administration was performed using a Dry Powder Inhaler consisting of a capsule containing NAL and a carrier, and of an inhalation device.
# (§4) During the same study, sputum of COPD patients was collected at baseline (T0), after 4 weeks (w4) and after 12 weeks of treatment (T12).
# (§5) The purpose of collecting sputum was to assess if NAL DPI administration could affect (increase or decrease) lung inflammation parameters in such patients. Lung inflammation may be reflected by the sputum concentration of some pro-inflammatory markers, called cytokines, such as interleukine 6 (IL-6) and interleukine 8 (IL-8) or anti-inflammatory markers, such as interleukine 10 (IL-10).
# (§6) After collection of the mucus, the said mucus was centrifugated and the cytokines IL-8 and IL-6 were quantified using a validated analytical method. It should be noted that only subjects presenting a quantifiable value of cytokines at the time considered were taken into account.
# [2] = system: interleukine 8 (IL-8); assay: Sputum IL-8 in 12-week placebo controlled study of NAL DPI in COPD patients; type: in vivo, human (COPD patients)
# Method: as §1, §2, §3, §4, §5, §6
# [3] = sputum of COPD patients, NAL DPI 20 mg twice a day, week 4
# [4] = sputum of COPD patients, NAL DPI 20 mg twice a day, week 12
# [5] = sputum of COPD patients, NAL DPI 40 mg twice a day, week 4
# [6] = sputum of COPD patients, NAL DPI 40 mg twice a day, week 12
smiles,measurement,setting,value
"CC(=O)N[C@@H](CS)C(=O)O.NCCCC[C@H](N)C(=O)O [NAL, L-Lysine-N-Acetylcysteinate]",effect on IL-6 in sputum (in words),"[1]; sputum of COPD patients, 20 mg and 40 mg twice a day",decrease of IL-6 in the sputum of COPD patients in a dose related manner
same,"change in inflammatory marker IL-6, percent change versus baseline",[1]; [3],24%
same,"change in inflammatory marker IL-6, percent change versus baseline",[1]; [4],−17%
same,"change in inflammatory marker IL-6, percent change versus baseline",[1]; [5],70%
same,"change in inflammatory marker IL-6, percent change versus baseline",[1]; [6],−42%
same,concentration in IL-6 decreased by,[1]; NAL 20 mg,17%
same,concentration in IL-6 decreased by,[1]; NAL 40 mg,42%
same,effect on IL-8 levels in sputum (in words),[2]; sputum of COPD patients,significantly decrease the IL-8 levels in the sputum
same,"change in inflammatory marker IL-8, percent change versus baseline",[2]; [3],−13%
same,"change in inflammatory marker IL-8, percent change versus baseline",[2]; [4],−17%
same,"change in inflammatory marker IL-8, percent change versus baseline",[2]; [5],−2%
same,"change in inflammatory marker IL-8, percent change versus baseline",[2]; [6],+3%
same,levels of IL-8 decreased by,"[2]; sputum, after 12 weeks of treatment, NAL 20 mg",17%
same,levels of IL-8 increased by,"[2]; sputum, after 12 weeks of treatment, NAL 40 mg",3%
